Assays:
[1] = system: Streptococcus pyogenes NZ131; assay: Antimicrobial peptide co-culture, viable bacteria in a dish coating manner; format: cell-based; settings: 1-200 mg/mL
Method: (§1) The powder was diluted with DMSO to different concentrations. Subsequently, after being co-cultured with pathogenic streptococcus for different time periods, it was confirmed whether the antimicrobial peptides were the antimicrobial peptide of GM-080 capable of inhibiting Streptococcus pyogenes NZ131 by OD6oonm or in a dish coating manner simultaneously.

[2] = system: Streptococcus pyogenes NZ131; assay: Antimicrobial peptide co-culture with Streptococcus pyogenes (OD); format: cell-based
Method: as §1

Row | Sequence | inhibition of growth of Streptococcus pyogenes in a dish coating manner (viable bacteria) ([1]; co-cultured for 2 or 5 hours, FIG. 9A) | inhibition of Streptococcus pyogenes in a co-culture manner ([2]; 10-200 mg/mL, from 2-3 hours of co-culture, FIG. 8A) | inhibition of growth of Streptococcus pyogenes in a dish coating manner ([1]; FIG. 9B) | inhibition of growth of Streptococcus pyogenes in a co-culture manner ([2]; 1-200 mg/mL, FIG. 8B)
1 | MELLNEKELAHVIGGKRKCPKTPFDNTPGAWFAHLILGC (GM-080; listed as Lactobacillus paracasei) [AMP-01026, antimicrobial peptide of Lactobacillus paracasei GM-080, synthesized] | significantly inhibit the growth | good inhibition effect | – | –
2 | MKQFDEQKMVNMSDEELLEFIGGDSIRDVSPTFNKIRRWFDGLFK (GM-080; listed as Lactobacillus paracasei) [AMP-01240, second predicted antimicrobial peptide segment of GM-080, synthesized] | – | – | not capable of inhibiting the growth | not capable of inhibiting the growth
